Test results reported in EP2217930B1, “MALDI MS-BASED HIGH-THROUGHPUT SCREENING METHOD FOR SUBSTANCES INHIBITING AGGREGATION OF ALZHEIMER'S AMYLOID BETA PEPTIDES” (Tallinn University of Technology, priority 2007, dated 2009).

Target: T1, Aβ42 (Homo sapiens, UniProt P05067)
T1 construct: Both 40 and 42 amino acid amyloid beta peptides were purchased from rPeptide; purchased rPeptide (Bogart, USA)
Assay: automatic MALDI-TOF MS high-throughput screening assay for inhibitors of Aβ42 aggregation (detection of monomeric Aβ42, insulin B chain as internal standard)
Type: biochemical
Conditions: 35 selected substances tested; 5 µM Aβ42 in 20mM HEPES 0.1 M NaCl pH 7.5; monomeric Aβ42 detected by MALDI-TOF MS
Description: For every aggregation experiment Aβ42 solutions were prepared following the same procedure. The lyophilized peptide was taken out from the -80°C fridge, and incubated at room temperature until thawing. Cold 0.02% ammonium hydroxide was added to the peptide to get a final concentration of 10 µM. The solution was mixed on the vortex for a minute and put on ice. Before the beginning of the experiment the solution was mixed again for a shorter time. To start the experiment, the peptide stock solution was diluted in a ratio of 1:1 into the buffer, which contained various concentrations of a tested compound. All probes contained 5 µM Aβ42 in 20mM HEPES 0.1 M NaCl pH 7.5. Aβ42 solutions were always prepared shortly before the beginning of experiment.
First, 5 µM B chain solution in 60% AcN 0.3% TFA was prepared and added to the α-cyano matrix solution to generate a 10 mg/ml α-cyano, 0.25 µM B chain solution in 60% AcN 0.3% TFA. The solution was mixed on a vortex for a minute and then incubated at room temperature for 10 minutes. Solution was mixed again, centrifuged for 3 min at 6000 rpm and the supernatant was transferred into a clean vial. Shortly before the beginning of aggregation experiments, Aβ42 solutions were prepared and transferred to sequential wells of a 96-well plate.
Spots on MALDI plates were generated automatically by an Ettan Spotter (Amersham Biosciences, Sweden). Different spotting procedures were tested and best results were obtained using the following method: 0.5 µl sample + 1.5 µl matrix containing the internal calibrant - mixing 3 times with a volume of 1 µl.
The spots were air-dried and spectra were collected automatically with Voyager DE™ STR BioSpectrometry™Workstation (Applied Biosystems, USA) mass spectrometer. […] The spectra were processed with Data Explorer™ Software (Version 4; Applied Biosystems, USA).

T1 sequence (P05067 672-713 limits assumed): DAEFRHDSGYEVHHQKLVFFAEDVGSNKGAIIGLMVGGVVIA

Row | inhibition of aggregation of Aβ42 | Substance
1 | inhibited aggregation of Aβ42 | Zn(CH3COO)2 [zinc]
2 | inhibited aggregation of Aβ42 | copper

Row | Substance | inhibition of aggregation of Aβ42
3 | hemin | inhibits aggregation of Aβ42
